Results reported in ChEMBL document CHEMBL1153685, “Design, synthesis, and evaluation of orally active fibrinogen inhibitors” (Bioorg Med Chem Lett, 1997).

Assays:
Assay type in all cases: functional
Cavia porcellus [1] = test: Tested ex vivo for its inhibitory activity at 2 hr against guinea pig after oral administration of 1 mg/Kg dose to evaluate bioavailability
Canis familiaris [2] = test: Tested ex vivo for its inhibitory activity at 3 hr against dogs after oral administration of 10 mg/Kg dose to evaluate bioavailability; conditions: Canis lupus familiaris
Cavia porcellus [3] = test: Tested ex vivo for its inhibitory activity at 1 hr against guinea pig after oral administration of 0.32 mg/Kg dose to evaluate bioavailability
Canis familiaris [4] = test: Tested ex vivo for its inhibitory activity at 3 hr against dogs after oral administration of 1 mg/Kg dose to evaluate bioavailability; conditions: Canis lupus familiaris
Canis familiaris [5] = test: Tested ex vivo for its inhibitory activity at 6 hr against dogs after oral administration of 10 mg/Kg dose to evaluate bioavailability; conditions: Canis lupus familiaris
Cavia porcellus [6] = test: Tested ex vivo for its inhibitory activity at 1 hr against guinea pig after oral administration of 0.1 mg/Kg dose to evaluate bioavailability
Cavia porcellus [7] = test: Tested ex vivo for its inhibitory activity at 2 hr against guinea pig after oral administration of 0.32 mg/Kg dose to evaluate bioavailability
Canis familiaris [8] = test: Tested ex vivo for its inhibitory activity at 1 hr against dogs after oral administration of 3.2 mg/Kg dose to evaluate bioavailability; conditions: Canis lupus familiaris
Canis familiaris [9] = test: Tested ex vivo for its inhibitory activity at 8 hr against dogs after oral administration of 3.2 mg/Kg dose to evaluate bioavailability; conditions: Canis lupus familiaris
Canis familiaris [10] = test: Tested ex vivo for its inhibitory activity at 3 hr against dogs after oral administration of 3.2 mg/Kg dose to evaluate bioavailability; conditions: Canis lupus familiaris
Canis familiaris [11] = test: Tested ex vivo for its inhibitory activity at 8 hr against dogs after oral administration of 10 mg/Kg dose to evaluate bioavailability; conditions: Canis lupus familiaris
Canis familiaris [12] = species: Canis familiaris; test: The compound was tested in vitro for its anti-platelet activity against dog platelets in presence of ADP; conditions: Canis lupus familiaris
[13] = The ratio of anti-platelet activity against dog platelets to that of human platelets was determined
Homo sapiens = species: Homo sapiens; test: The compound was tested in vitro for its anti-platelet activity against human platelets in presence of ADP
Rattus norvegicus [14] = test: Tested ex vivo for its inhibitory activity at 2 h against rats after oral administration of 3.2 mg/Kg dose to evaluate bioavailability
Canis familiaris [15] = test: Tested ex vivo for its inhibitory activity at 6 hr against dogs after oral administration of 3.2 mg/Kg dose to evaluate bioavailability; conditions: Canis lupus familiaris
Cavia porcellus [16] = test: Tested ex vivo for its inhibitory activity at 1 hr against guinea pig after oral administration of 1 mg/Kg dose to evaluate bioavailability
Canis familiaris [17] = test: Tested ex vivo for its inhibitory activity at 1 hr against dogs after oral administration of 1 mg/Kg dose to evaluate bioavailability; conditions: Canis lupus familiaris
Rattus norvegicus [18] = test: Tested ex vivo for its inhibitory activity at 0.5 hr against rats after oral administration of 3.2 mg/Kg dose to evaluate bioavailability
Cavia porcellus [19] = test: Tested ex vivo for its inhibitory activity at 3 hr against guinea pig after oral administration of 1 mg/Kg dose to evaluate bioavailability
Rattus norvegicus [20] = test: Tested ex vivo for its inhibitory activity at 1 h against rats after oral administration of 3.2 mg/Kg dose to evaluate bioavailability
Rattus norvegicus [21] = species: Rattus norvegicus; test: The compound was tested for its stability in intestinal juice of rats after 0 h
Rattus norvegicus [22] = species: Rattus norvegicus; test: The compound was tested for its stability in intestinal juice of rats after 5 h
Rattus norvegicus [23] = species: Rattus norvegicus; test: The compound was tested for its stability in intestinal juice of rats after 2 h
Rattus norvegicus [24] = species: Rattus norvegicus; test: The compound was tested for its stability in intestinal juice of rats after 7 h
Canis familiaris [25] = test: Tested ex vivo for its inhibitory activity at 1 hr against dogs after oral administration of 10 mg/Kg dose to evaluate bioavailability; conditions: Canis lupus familiaris
Rattus norvegicus [26] = species: Rattus norvegicus; test: Tested for its stability in intestinal juice of rats after 2 h
Canis familiaris [27] = test: Tested ex vivo for its inhibitory activity at 1 hr against dogs after oral administration of 32 mg/Kg dose to evaluate bioavailability; conditions: Canis lupus familiaris
Rattus norvegicus [28] = species: Rattus norvegicus; test: Tested for its stability in intestinal juice of rats after 5 h
Rattus norvegicus [29] = test: Tested ex vivo for its inhibitory activity at 1 hr against rats after oral administration of 10 mg/Kg dose to evaluate bioavailability
Canis familiaris [30] = test: Tested ex vivo for its inhibitory activity at 2 hr against dogs after oral administration of 3.2 mg/Kg dose to evaluate bioavailability; conditions: Canis lupus familiaris
Rattus norvegicus [31] = test: Tested ex vivo for its inhibitory activity at 0.5 hr against rats after oral administration of 10 mg/Kg dose to evaluate bioavailability
Rattus norvegicus [32] = test: Tested ex vivo for its inhibitory activity at 2 hr against rats after oral administration of 10 mg/Kg dose to evaluate bioavailability
Rattus norvegicus [33] = test: Tested ex vivo for its inhibitory activity at 2 hr against rats after oral administration of 20 mg/Kg dose to evaluate bioavailability
Rattus norvegicus [34] = test: Tested ex vivo for its inhibitory activity at 1 hr against rats after oral administration of 20 mg/Kg dose to evaluate bioavailability
Canis familiaris [35] = test: Tested ex vivo for its inhibitory activity at 3 hr against dogs after oral administration of 32 mg/Kg dose to evaluate bioavailability; conditions: Canis lupus familiaris
Rattus norvegicus [36] = species: Rattus norvegicus; test: Tested for its stability in intestinal juice of rats after 0 h
Canis familiaris [37] = test: Tested ex vivo for its inhibitory activity at 2 h against dogs after oral administration of 32 mg/Kg dose to evaluate bioavailability; conditions: Canis lupus familiaris
Cavia porcellus [38] = test: Tested ex vivo for its inhibitory activity at 3 hr against guinea pig after oral administration of 3.2 mg/Kg dose to evaluate bioavailability
Rattus norvegicus [39] = test: Tested ex vivo for its inhibitory activity at 0.5 hr against rats after oral administration of 20 mg/Kg dose to evaluate bioavailability
Cavia porcellus [40] = test: Tested ex vivo for its inhibitory activity at 1 hr against guinea pig after oral administration of 3.2 mg/Kg dose to evaluate bioavailability
Cavia porcellus [41] = test: Tested ex vivo for its inhibitory activity at 6 hr against guinea pig after oral administration of 3.2 mg/Kg dose to evaluate bioavailability

CC(C)[C@H](NC(=O)[C@H](CC(=O)O)NC(=O)CCCOc1ccc(C(=N)N)cc1)C(=O)N1CCS(=O)(=O)CC1
inhibition in vivo at 1 mg/kg (Cavia porcellus [1]): 59%
inhibition in vivo at 10 mg/kg (Canis familiaris [2]): 80%
inhibition in vivo at 0.32 mg/kg (Cavia porcellus [3]): 69%
inhibition in vivo at 1 mg/kg (Canis familiaris [4]): 11%
inhibition in vivo at 10 mg/kg (Canis familiaris [5]): 65%
inhibition in vivo at 0.1 mg/kg (Cavia porcellus [6]): 49%
inhibition in vivo at 0.32 mg/kg (Cavia porcellus [7]): 50%
inhibition in vivo at 3.2 mg/kg (Canis familiaris [8]): 85%
inhibition in vivo at 3.2 mg/kg (Canis familiaris [9]): 0%
inhibition in vivo at 3.2 mg/kg (Canis familiaris [10]): 65%
inhibition in vivo at 10 mg/kg (Canis familiaris [11]): 45%
IC50 (Canis familiaris [12]): 0.11 µM
Ratio [13]: 3.7
IC50 (Homo sapiens): 0.03 µM
inhibition in vivo at 3.2 mg/kg (Rattus norvegicus [14]): 44%
inhibition in vivo at 3.2 mg/kg (Canis familiaris [15]): 46%
inhibition in vivo at 1 mg/kg (Cavia porcellus [16]): 100%
inhibition in vivo at 1 mg/kg (Canis familiaris [17]): 40%
inhibition in vivo at 3.2 mg/kg (Rattus norvegicus [18]): 76%
inhibition in vivo at 1 mg/kg (Cavia porcellus [19]): 21%
inhibition in vivo at 3.2 mg/kg (Rattus norvegicus [20]): 97%

CC(C)[C@H](NC(=O)[C@H](CC(=O)O)NC(=O)CCCOc1ccc(C(=N)N)cc1)C(N)=O
Remains (Rattus norvegicus [21]): 100%
Remains (Rattus norvegicus [22]): 107.3%
IC50 (Homo sapiens): 0.67 µM
Remains (Rattus norvegicus [23]): 105.6%

CC(C)C(C)NC(=O)[C@H](CC(=O)O)NC(=O)CCCOc1ccc(C(=N)N)cc1 (stereo not given in full)
IC50 (Homo sapiens): 1.4 µM

CCN(CC)C(=O)[C@@H](NC(=O)[C@H](CC(=O)O)NC(=O)CCCOc1ccc(C(=N)N)cc1)C(C)C
IC50 (Homo sapiens): 0.25 µM

CC(C)CNC(=O)[C@H](CC(=O)O)NC(=O)CCCOc1ccc(C(=N)N)cc1
Remains (Rattus norvegicus [21]): 100%
Remains (Rattus norvegicus [22]): 83.6%
IC50 (Homo sapiens): 1.2 µM
Remains (Rattus norvegicus [23]): 80.4%
Remains (Rattus norvegicus [24]): 86.2%

CC(C)[C@H](NC(=O)[C@H](CC(=O)O)NC(=O)CCCOc1ccc(C(=N)N)cc1)C(=O)N1CCOCC1
inhibition in vivo at 10 mg/kg (Canis familiaris [2]): 75%
inhibition in vivo at 10 mg/kg (Canis familiaris [25]): 96%
inhibition in vivo at 10 mg/kg (Canis familiaris [5]): 59%
inhibition in vivo at 3.2 mg/kg (Canis familiaris [8]): 53%
inhibition in vivo at 3.2 mg/kg (Canis familiaris [10]): 45%
IC50 (Canis familiaris [12]): 0.14 µM
Ratio [13]: 1.8
IC50 (Homo sapiens): 0.079 µM
inhibition in vivo at 3.2 mg/kg (Rattus norvegicus [14]): 95%
inhibition in vivo at 3.2 mg/kg (Canis familiaris [15]): 20%
inhibition in vivo at 3.2 mg/kg (Rattus norvegicus [18]): 95%
inhibition in vivo at 3.2 mg/kg (Rattus norvegicus [20]): 97%

CCOc1ccc(CCNC(=O)[C@H](CC(=O)O)NC(=O)CCCOc2ccc(C(=N)N)cc2)cc1
IC50 (Homo sapiens): 0.34 µM

CC(C)[C@H](NC(=O)[C@H](CC(=O)O)NC(=O)CCCOc1ccc(C(=N)N)cc1)C(=O)N1CCN(C)CC1
IC50 (Homo sapiens): 0.18 µM

COc1ccc(CCNC(=O)[C@H](CC(=O)O)NC(=O)CCCOc2ccc(C(=N)N)cc2)cc1OC
IC50 (Homo sapiens): 0.54 µM

CC(C)[C@H](NC(=O)[C@H](CC(=O)O)NC(=O)CCCOc1ccc(C(=N)N)cc1)C(=O)O
Remains (Rattus norvegicus [26]): 63.8%
inhibition in vivo at 32 mg/kg (Canis familiaris [27]): 58%
Remains (Rattus norvegicus [28]): 45.1%
inhibition in vivo at 0.32 mg/kg (Cavia porcellus [3]): 70%
inhibition in vivo at 10 mg/kg (Rattus norvegicus [29]): 18%
Remains (Rattus norvegicus [21]): 100%
inhibition in vivo at 3.2 mg/kg (Canis familiaris [8]): 19%
inhibition in vivo at 3.2 mg/kg (Canis familiaris [30]): 30%
inhibition in vivo at 10 mg/kg (Rattus norvegicus [31]): 24%
inhibition in vivo at 10 mg/kg (Rattus norvegicus [32]): 4%
inhibition in vivo at 20 mg/kg (Rattus norvegicus [33]): 20%
inhibition in vivo at 20 mg/kg (Rattus norvegicus [34]): 33%
inhibition in vivo at 3.2 mg/kg (Canis familiaris [10]): 10%
inhibition in vivo at 32 mg/kg (Canis familiaris [35]): 18%
Remains (Rattus norvegicus [36]): 100%
inhibition in vivo at 32 mg/kg (Canis familiaris [37]): 29%
Remains (Rattus norvegicus [22]): 25.6%
IC50 (Canis familiaris [12]): 0.38 µM
IC50 (Homo sapiens): 0.1 µM
inhibition in vivo at 1 mg/kg (Cavia porcellus [16]): 99%
Remains (Rattus norvegicus [23]): 61.3%
Remains (Rattus norvegicus [24]): 19.2%
inhibition in vivo at 3.2 mg/kg (Cavia porcellus [38]): 64%
inhibition in vivo at 20 mg/kg (Rattus norvegicus [39]): 45%
inhibition in vivo at 1 mg/kg (Cavia porcellus [19]): 34%
inhibition in vivo at 3.2 mg/kg (Cavia porcellus [40]): 100%
inhibition in vivo at 3.2 mg/kg (Cavia porcellus [41]): 19%

COc1ccc(CCNC(=O)[C@H](CC(=O)O)NC(=O)CCCOc2ccc(C(=N)N)cc2)cc1
Remains (Rattus norvegicus [21]): 100%
Remains (Rattus norvegicus [22]): 105.7%
IC50 (Homo sapiens): 0.44 µM
Remains (Rattus norvegicus [23]): 100.5%

CC(C)Oc1ccc(CCNC(=O)[C@H](CC(=O)O)NC(=O)CCCOc2ccc(C(=N)N)cc2)cc1
IC50 (Homo sapiens): 0.37 µM

CC(C)[C@H](NC(=O)[C@H](CC(=O)O)NC(=O)CCCOc1ccc(C(=N)N)cc1)C(=O)NC1CCCCC1
IC50 (Homo sapiens): 0.21 µM
